Structures can show the parent of a compound that is named as a salt.
Each compound was assayed against human Mnk2a (Homo sapiens (Human), UniProt Q9HBH9) (assay: Mnk2a in vitro kinase assay (indirect competitive fluorescence polarization)). Conditions: pre-activated GST-Mnk2a 2.5 nM, 20 μM ATP, 30 μM substrate peptide; read-out: MNK2 IC50.
Assay type: biochemical
Procedure, shortened: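 GST-tagged human Mnk2a expressed in E. coli and glutathione-purified, then activated at 2.5 μM with 150 nM pre-activated NHis-ERK2 and 50 μM ATP in HEPES/KOH pH 7.4, MgCl2, DTT, Brij 78 for 45 min at 30 °C. Phospho-peptide product read by indirect competitive fluorescence polarization against fluorophore-labelled phospho-peptide bound to phospho-specific antibody.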

human Mnk2a, sequence (Q9HBH9 whole entry): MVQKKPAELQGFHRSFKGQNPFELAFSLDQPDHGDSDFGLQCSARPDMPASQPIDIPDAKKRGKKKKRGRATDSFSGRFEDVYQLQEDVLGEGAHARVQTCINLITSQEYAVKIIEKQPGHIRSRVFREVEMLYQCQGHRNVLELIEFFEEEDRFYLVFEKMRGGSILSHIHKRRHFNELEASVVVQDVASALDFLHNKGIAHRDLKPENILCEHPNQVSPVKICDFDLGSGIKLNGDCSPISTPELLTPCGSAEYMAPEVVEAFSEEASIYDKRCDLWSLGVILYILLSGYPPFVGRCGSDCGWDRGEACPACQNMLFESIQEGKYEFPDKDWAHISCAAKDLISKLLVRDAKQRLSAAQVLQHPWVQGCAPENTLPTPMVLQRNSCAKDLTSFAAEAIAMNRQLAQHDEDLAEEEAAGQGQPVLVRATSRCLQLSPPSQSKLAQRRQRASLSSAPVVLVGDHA

| SMILES | IC50 |
| --- | --- |
| Cc1c(C(=O)NCCCN(C)C)sc2ncnc(Nc3ccc(F)cc3OCC(F)(F)F)c12 [Compound 32-16] | 0.066 µM |
| Cc1c(C(N)=O)sc2ncnc(Nc3ccc(F)cc3OCC(F)F)c12 [Compound 32-17] | 0.016 µM |
| Cc1c(C(=O)NCCO)sc2ncnc(Nc3ccc(F)cc3OCC(F)F)c12 [Compound 32-18] | 0.03 µM |
| Cc1c(C(=O)NCCCN(C)C)sc2ncnc(Nc3ccc(F)cc3OCC(F)F)c12 [Compound 32-19] | 0.023 µM |
| Cc1c(C(=O)NCCO)sc2ncnc(Nc3ccc(F)cc3OCC3CC3(F)F)c12 (stereo not drawn) [Compound 32-20] | 0.019 µM |
| Cc1c(C(N)=O)sc2ncnc(Nc3ccc(F)cc3OCC3CC3(F)F)c12 (stereo not drawn) [Compound 32-21] | 0.008 µM |
| Cc1c(C(=O)NCCCN(C)C)sc2ncnc(Nc3ccc(F)cc3OCC3CC3(F)F)c12 (stereo not drawn) [Compound 32-22] | 0.036 µM |
| COCC(CF)Oc1cc(F)ccc1Nc1ncnc2sc(C(=O)NCCO)c(C)c12 (stereo not drawn) [Compound 32-23] | 0.026 µM |
| COCC(CF)Oc1cc(F)ccc1Nc1ncnc2sc(C(=O)NCCCN(C)C)c(C)c12 (stereo not drawn) [Compound 32-24] | 0.025 µM |
| COCC(CF)Oc1cc(F)ccc1Nc1ncnc2sc(C(=O)NCCO)c(C)c12 (stereo not drawn) [Compound 32-25] | 0.013 µM |
| Cc1c(C(N)=O)sc2ncnc(Nc3ccc(F)cc3OC(C)CF)c12 (stereo not drawn) [Compound 32-28] | 0.003 µM |
| Cc1c(C(=O)NCCO)sc2ncnc(Nc3ccc(F)cc3OC(CO)CO)c12 [Compound 32-29] | 0.17 µM |
| Cc1c(C(N)=O)sc2ncnc(Nc3ccc(F)cc3OC(CO)CO)c12 [Compound 32-30] | 0.056 µM |
| Cc1c(C(=O)NCCCN(C)C)sc2ncnc(Nc3ccc(F)cc3OC(CO)CO)c12 [Compound 32-31] | 0.146 µM |
| Cc1c(C(N)=O)sc2ncnc(Nc3ccc(F)cc3OCCO)c12 [Compound 32-32] | 0.027 µM |
| Cc1c(C(=O)NCCO)sc2ncnc(Nc3ccc(F)cc3OCCO)c12 [Compound 32-33] | 0.065 µM |
| Cc1c(C(=O)NCCCN(C)C)sc2ncnc(Nc3ccc(F)cc3OCCO)c12 [Compound 32-34] | 0.069 µM |
| COCC(C)Oc1cc(F)ccc1Nc1ncnc2sc(C(=O)NCCCN(C)C)c(C)c12 (stereo not drawn) [Compound 32-35] | 0.035 µM |
| COCC(C)Oc1cc(F)ccc1Nc1ncnc2sc(C(N)=O)c(C)c12 (stereo not drawn) [Compound 32-37] | 0.008 µM |
| Cc1c(C(=O)NCCCN(C)C)sc2ncnc(Nc3ccc(F)cc3OCCC(F)(F)F)c12 [Compound 32-38] | 0.026 µM |
| Cc1c(C(=O)NC2CCN(C)CC2)sc2ncnc(Nc3ccc(F)cc3OC(C)CC(F)(F)F)c12 (stereo not drawn) [Compound 32-41] | 0.025 µM |
| Cc1c(C(=O)NCCCN2CCCC2)sc2ncnc(Nc3ccc(F)cc3OC(C)CC(F)(F)F)c12 (stereo not drawn) [Compound 32-42] | 0.012 µM |
| Cc1c(C(=O)NCCC2CCN(C)C2)sc2ncnc(Nc3ccc(F)cc3OC(C)CF)c12 (stereo not drawn) [Compound 32-43] | 0.012 µM |
| Cc1c(C(=O)NCCCN2CCCC2)sc2ncnc(Nc3ccc(F)cc3OC(C)CF)c12 (stereo not drawn) [Compound 32-44] | 0.006 µM |
| Cc1c(C(=O)NC2CCN(C)CC2)sc2ncnc(Nc3ccc(F)cc3OC(C)CF)c12 (stereo not drawn) [Compound 32-45] | 0.011 µM |
| Cc1c(C(=O)O)sc2ncnc(Nc3ccc(F)cc3OC(C)CF)c12 (stereo not drawn) [Compound 32.7] | 0.005 µM |
| CCNC(=O)C(C)Oc1cc(F)ccc1Nc1ncnc2sc(C(=O)O)c(C)c12 (stereo not drawn) [Compound 39, 4-[2-(1-Ethylcarbamoyl-ethoxy)-4-fluoro-phenylamino]-5-methyl-thieno[2,3-d]pyrimidine-6-carboxylic acid] | 0.019 µM |
| CCNC(=O)C(C)Oc1cc(F)ccc1Nc1ncnc2sc(C(=O)NCCCN(C)C)c(C)c12 (stereo not drawn) [Compound 40, 4-[2-(1-Ethylcarbamoyl-ethoxy)-4-fluoro-phenylamino]-5-methyl-thieno[2,3-d]pyrimidine-6-carboxylic acid (3-dimethylamino-propyl)-amide] | 0.02 µM |
| CCNC(=O)C(C)Oc1cc(F)ccc1Nc1ncnc2sc(C(=O)NCCO)c(C)c12 (stereo not drawn) [Compound 41] | 0.031 µM |

Continued, values first:

| IC50 | SMILES |
| --- | --- |
| 0.007 µM | Cc1c(C(=O)NCCO)sc2ncnc(Nc3ccc(F)cc3OC(C)CF)c12 (stereo not drawn) [Compound 32-27] |
| 0.025 µM | COCC(C)Oc1cc(F)ccc1Nc1ncnc2sc(C(=O)NCCO)c(C)c12 (stereo not drawn) [Compound 32-36] |
| 0.035 µM | Cc1c(C(=O)NCCCN(C)C)sc2ncnc(Nc3ccc(F)cc3OCC(C)F)c12 (stereo not drawn) [Compound 32-39] |
| 0.047 µM | Cc1c(C(=O)NCCCN(C)C)sc2ncnc(Nc3cccnc3OCC3(CC#N)CC3)c12 [Compound 33, 4-(2-((1-(Cyanomethyl)cyclopropyl)methoxy)pyridin-3-ylamino)-N-(3-(dimethylamino)propyl)-5-methylthieno[2,3-d]pyrimidine-6-carboxamide hydrochloride] |
| 0.016 µM | Cc1c(C(N)=O)sc2ncnc(Nc3cccnc3OCC3(CC#N)CC3)c12 [Compound 33-4] |
| 0.054 µM | Cc1c(C(=O)NCCCN(C)C)sc2ncnc(Nc3cccnc3OCC3CC3(F)F)c12 (stereo not drawn) [Compound 34, 4-(2-((2,2-Difluorocyclopropyl)methoxy)pyridin-3-ylamino)-N-(3-(dimethylamino)propyl)-5-methylthieno[2,3-d]pyrimidine-6-carboxamide hydrochloride] |
| 0.015 µM | Cc1c(C(N)=O)sc2ncnc(Nc3cccnc3OCC3CC3(F)F)c12 (stereo not drawn) [Compound 34-4] |
| 0.012 µM | Cc1c(C(N)=O)sc2ncnc(Nc3cccnc3OC(C)C)c12 [Compound 35, 4-(2-Isopropoxypyridin-3-ylamino)-5-methyl-thieno[2,3-d]pyrimidine-6-carboxamide] |
| 0.029 µM | Cc1c(C(=O)NCCCN(C)C)sc2ncnc(Nc3cccnc3OC(C)C)c12 [Compound 36, N-(3-(Dimethylamino)propyl)-4-(2-isopropoxypyridin-3-ylamino)-5-methyl-thieno[2,3-d]pyrimidine-6-carboxamide] |
| 0.035 µM | Cc1c(C(=O)NCCCN2CCCC2)sc2ncnc(Nc3cccnc3OC(C)C)c12 [Compound 36-1, 4-(2-Isopropoxypyridin-3-ylamino)-5-methyl-N-(3-(pyrrolidin-1-yl)propyl)thieno[2,3-d]pyrimidine-6-carboxamide] |
| 0.042 µM | Cc1c(C(=O)NCCCCO)sc2ncnc(Nc3cccnc3OC(C)C)c12 [Compound 36-2, N-(4-Hydroxybutyl)-4-(2-isopropoxypyridin-3-ylamino)-5-methylthieno[2,3-d]pyrimidine-6-carboxamide] |
| 0.026 µM | CCNC(=O)c1sc2ncnc(Nc3cccnc3OC(C)C)c2c1C [Compound 36-3] |
| 0.044 µM | Cc1c(C(=O)NCCCN2CCOCC2)sc2ncnc(Nc3cccnc3OC(C)C)c12 [Compound 36-4] |
| 0.025 µM | Cc1c(C(=O)NCC2CNCCO2)sc2ncnc(Nc3cccnc3OC(C)C)c12 (stereo not drawn) [Compound 36-5, 4-(2-Isopropoxypyridin-3-ylamino)-5-methyl-N-(morpholin-2ylmethyl) thieno[2,3-d]pyrimidine-6-carboxamide] |
| 0.055 µM | Cc1c(C(=O)N[C@H]2C[C@@H]2N)sc2ncnc(Nc3cccnc3OC(C)C)c12 [Compound 36-6, N-((1S,2S)-2-Aminocyclopropyl)-4-(2-isopropoxypyridin-3-ylamino)-5-methylthieno[2,3-d]pyrimidine-6-carboxamide] |
| 0.027 µM | CNC(=O)CNC(=O)c1sc2ncnc(Nc3cccnc3OC(C)C)c2c1C [Compound 36-7, 4-(2-Isopropoxypyridin-3ylamino)-5-methyl-N-(2-(methylamino)-2-oxoethyl)thieno[2,3-d]pyrimidine-6-carboxamide] |
| 0.019 µM | Cc1c(C(=O)NCc2cnco2)sc2ncnc(Nc3cccnc3OC(C)C)c12 [Compound 36-8, 4-(2-Isopropoxypyridin-3ylamino)-5-methyl-N-(oxazol-5-ylmethyl)thieno[2,3-d]pyrimidine-6-carboxamide] |
| 0.063 µM | Cc1c(C(=O)NCCN2CCCCC2)sc2ncnc(Nc3cccnc3OC(C)C)c12 [Compound 36-9, 4-(2-Isopropoxypyridin-3ylamino)-5-methyl-N-(2-(piperidin-1-yl)ethyl)thieno[2,3-d]pyrimidine-6-carboxamide] |
| 0.032 µM | Cc1c(C(=O)NC2CCN(C)CC2)sc2ncnc(Nc3cccnc3OC(C)C)c12 [Compound 36-10, 4-(2-Isopropoxypyridin-3ylamino)-5-methyl-N-(1-methylpiperidin-4-yl)thieno[2,3-d]pyrimidine-6-carboxamide] |
| 0.045 µM | Cc1c(C(=O)NCCCO)sc2ncnc(Nc3cccnc3OC(C)C)c12 [Compound 36-11, N-(3-Hydroxypropyl)-4-(2-isopropoxypyridin-3ylamino)-5-methylthieno[2,3-d]pyrimidine-6-carboxamide] |
| 0.031 µM | Cc1c(C(=O)NCCO)sc2ncnc(Nc3cccnc3OC(C)C)c12 [Compound 36-12, N-(2-Hydroxyethyl)-4-(2-isopropoxypyridin-3ylamino)-5-methylthieno[2,3-d]pyrimidine-6-carboxamide] |
| 0.054 µM | Cc1c(C(=O)NCC(C)O)sc2ncnc(Nc3cccnc3OC(C)C)c12 (stereo not drawn) [Compound 36-13, N-(2-Hydroxypropyl)-4-(2-isopropoxypyridin-3ylamino)-5-methylthieno[2,3-d]pyrimidine-6-carboxamide] |
| 0.064 µM | Cc1c(C(=O)NCC2COCCN2)sc2ncnc(Nc3cccnc3OC(C)C)c12 (stereo not drawn) [Compound 36-14, 4-(2-Isopropoxypyridin-3ylamino)-5-methyl-N-(morpholin-3-ylmethyl) thieno[2,3-d]pyrimidine-6-carboxamide] |
| 0.024 µM | Cc1c(C(=O)NCc2cn(C)cn2)sc2ncnc(Nc3cccnc3OC(C)C)c12 [Compound 36-15, 4-(2-Isopropoxypyridin-3ylamino)-5-methyl-N-((1-methyl-1H-imidazol-4-yl)methyl) thieno[2,3-d]pyrimidine-6-carboxamide] |
| 0.022 µM | Cc1c(C(=O)NCC#CCN(C)C)sc2ncnc(Nc3cccnc3OC(C)C)c12 [Compound 36-16] |
